Measurements published in patent US10912846B2, “Molecular probes for chemiluminescence imaging and in vivo detection of target molecules” (ARIZONA BOARD OF REGENTS ON BEHALF OF THE UNIVERSITY OF …, priority 2015, dated 2021).

Columns and labels:
[1] = In vitro chemiluminescence kinetics of oxidation by H2O2
Experimental: (§1) Solutions of 3 and luminol were prepared in 0.01 M PBS (pH of 7.4). For all ROS other than H2O2, the reaction was carried out by mixing 200 μL of the ROS solution (1.0×10^−3 M) with 800 μL of the solution of probe 3 or luminol (1.0×10^−6 M). The voltage of the photomultiplier tube (PMT) was set at −400 V. In the case of H2O2, 200 μL of its solution (1.0×10^−2 M) was used, and the voltage of PMT was set at −800 V; the other conditions were identical to those used for the other ROS.

acute dermatitis = assay: CLI of acute dermatitis induced by dimethylbenzene; type: in vivo, mice; conditions: 720 μg/kg; 30, 60, 90 min
[2] = Solubility in alkaline and PBS solutions; type: physicochemical; conditions: alkaline and phosphate-buffered saline solutions (PBS, pH=7.4)
Experimental: Oxidation of compound 3 was accompanied by vivid green luminescence when the excited oxidation product (compound 2) underwent deactivation (see FIG. 1).
Solids of compound 3 or luminol were dissolved in 0.01 M NaOH to a final concentration of 8.0×10^−3 M, and the resulting solutions were stored at 4° C. in the absence of light. The solutions were further diluted by using sterile phosphate-buffered saline (PBS, 0.01 M and pH 7.4) as desired in various studies. PMA was dissolved in DMSO to prepare 500 µg/ml solution. HRP was freshly prepared by dilution using sterile PBS.

[3] = In vitro chemiluminescence from oxidation by non-H2O2 ROS; conditions: PBS pH 7.4, ROS 1.0×10^−3 M, probe 1.0×10^−6 M
Experimental: as §1

HRP [4] = assay: Oxidation by H2O2 catalyzed by trace HRP in vitro; type: biochemical, horseradish
[5] = mouse, in vivo
Experimental: Nude mice (24-26 g) were anesthetized followed by intraperitoneal injection of 3 or 2 (in 0.01 M PBS pH 7.4) using a dose of 660 μg of 3 or 2 per kilogram of the mouse body weight. The mice were housed individually and received food ad libitum. Urine was collected every 1 to 2 hours, and the collected samples were diluted to appropriate concentration with PBS. Probe 3 in each urine sample was quantified by comparing the intensity of its chemiluminescence resulting from its oxidation by NaClO with those of standard solutions. […] The potential toxicity of the probe was further evaluated with a sample of 50 mice using a dose of probe 3 at 72 mg/kg body weight of mouse.

Acute toxicity in mice = conditions: mouse, in vivo
Text: The results are summarized in (a).

HRP [6] = target: T1, HRP (Armoracia rusticana, UniProt P00433); assay: CLI of subcutaneously injected HRP in nude mice; type: in vivo
T1 construct: purchased Sigma-Aldrich
T1 sequence (P00433 31-338 limits assumed): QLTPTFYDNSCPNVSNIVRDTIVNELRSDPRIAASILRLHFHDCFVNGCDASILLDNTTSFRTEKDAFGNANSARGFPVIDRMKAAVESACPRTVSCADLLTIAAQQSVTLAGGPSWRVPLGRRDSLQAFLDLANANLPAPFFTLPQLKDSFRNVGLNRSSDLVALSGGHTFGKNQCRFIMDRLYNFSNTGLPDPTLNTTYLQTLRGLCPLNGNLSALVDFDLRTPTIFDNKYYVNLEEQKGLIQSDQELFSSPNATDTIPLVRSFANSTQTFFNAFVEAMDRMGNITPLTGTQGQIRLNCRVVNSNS
Experimental: CLI of HRP in the same nude mouse with the use of compound 3 as probe (7.2 mg per kg body weight, intraperitoneally injected). Against PBS-only control in the left foreleg, the total activity of HRP introduced into the right foreleg, the left hind leg, and the right hind leg were 0.0250, 0.125, and 0.250 U, respectively. The moment when the administration of 3 was completed was set as −20 min (panel (i)) with 0 min (panel (ii)) being the moment when the subcutaneous injection of HRP was finished. The circles in panel (ii) indicate both the sites of HRP introduction and the ROI for which photon-counting integration was performed.
Imaging of HRP was acquired in nude mice pre-injected with compound 3 (720 μg per kg body weight) against a control mouse intraperitoneally injected with luminol. […] To achieve significant CL intensity and to assure the accuracy of photon counting, the probe at a concentration of 720 μg/kg was used in subsequent studies in nude mice whose right foreleg, left hind leg, and right hind leg were injected with HRP of a total activity of 12.5 U, 25.0 U, and 50.0 U, respectively. Significant luminescence was produced and remained stable in a time window of 40 to 120 minutes following the introduction of HRP in each of the legs (data not shown).
In subsequent experiments, a dose of 7.2 mg/kg of compound 3 was used with which a total activity of HRP as low as 0.025 U could be detected. The CL produced intensified as the concentration of HRP increased, yielding a positive linear relationship.
Nude mice used in this work, each weighing 20-26 g, were obtained from the Laboratory Animal Center of the Fourth Military Medical University, China. Research and animal sacrifice protocols are in accordance with the principles and guidelines adopted by the Fourth Military Medical University. The mice were kept for an acclimatization period of 7 days under laboratory conditions (temperature maintained at 22±2° C., 12-hr cycles of alternating illumination and darkness, and free access to food and water) prior to any imaging experiments. […]

HRP-Ab = target: T2, HRP-Ab (Armoracia rusticana, UniProt P00433); assay: CLI of HRP-labeled goat anti-mouse IgG (HRP-Ab) in nude mice; type: in vivo
T2 construct: purchased ZSGB-Bio Inc. ZB2305
T2 sequence (P00433 31-338 limits assumed): T1 sequence (P00433 31-338 limits assumed)
Experimental: The use of the probe was validated using an enzyme-linked immunosorbent assay (ELISA) by imaging in nude mice the HRP-labeled goat anti-mouse IgG (HRP-Ab), a commercially available and commonly used HRP-antibody conjugate. To assess the sensitivity of the CLI, different amounts of the conjugate were administered to three of the legs of a nude mouse with the left foreleg injected with PBS only being the control. […] The brightness of the emission is proportional to the amount of HRP-Ab present. […] However, in the two hind legs, whose total activity of HRP is at 0.015 and 0.030 U, respectively, the emission of light was vivid, and the reduction in luminescence intensity was only about 10% after 60 minutes following the probe administration.
Nude mice used in this work, each weighing 20-26 g, were obtained from the Laboratory Animal Center of the Fourth Military Medical University, China. Research and animal sacrifice protocols are in accordance with the principles and guidelines adopted by the Fourth Military Medical University. The mice were kept for an acclimatization period of 7 days under laboratory conditions (temperature maintained at 22±2° C., 12-hr cycles of alternating illumination and darkness, and free access to food and water) prior to any imaging experiments. Nude mice were anesthetized by isoflurane inhalation, following which 200 μL of a solution of compound 3 or luminol in PBS of pH 7.4 was injected intraperitoneally. For the imaging of HPR or HRP-Ab, the probe solution (2.0×10^−3 M) was first injected, followed by the subcutaneous injection 20 minutes after of PBS and HRP (variable amount in 0.01 M PBS) solutions into the legs of nude mice. The control experiments with the use of luminol were conducted under otherwise identical conditions. IVIS 200 bioluminescence imaging system (Caliper Life Sciences) (f/stop, 1; no optical filter) was used for all imaging experiments. Exposure time was set at 5 minutes with moderate sensitivity, and the binning and field of view (FOV) are 8 and 13.3 cm, respectively. […]

[7] = test system: raw 264.7 cells; human monocyte; assay: In vitro response to phagocyte respiratory burst; type: cell-based; conditions: 5.0×10^−5 M; PMA or FMLP 100 μg/ml
Experimental: No chemiluminescence was detected in the absence of phorbol 12-myristate 13-acetate for (PMA) or N-formylmethionyl-leucyl-phenyl-alanine (FMLP). (a) CL kinetics resulting from the response of probe 3 to respiratory burst of raw 264.7 cells when stimulated with PMA (100 μg/ml). (b) CL kinetics resulting from the response of probe 3 to respiratory burst of human monocyte (10^6 cells/ml) in hank's when stimulated by FMLP (100 μg/ml). The kinetics curves were recorded with an MPI-A Chemiluminescence Analyzer with the use of probe 3 or luminol (5.0×10^−5 M).

gingival hemorrhage = assay: CLI of gingival hemorrhage; type: in vivo, nude mice; conditions: 200 μL of 2.0×10^−4 M
Experimental: (§2) Additional experiments were carried out using test mice suffering from gingival hemorrhage and mechanical injury. For example, nude mice were fed with cooked yolk for 1 week until gingival hemorrhage was visually identified. Various images were acquired (e.g., 0, 20 (supine position), and 30 min (prone position)) after the injection of 200 μL of 2.0×10^−4 M probe 3 or luminol (data not shown). […] Also, images of injuries (e.g., mechanical crush and syringe needle piecing, both on the end to tail) were acquired 0, 20, and 40 min, respectively, after the injection of 200 μL of probe 3 (2.0×10^−4 M).

[8] = test system: mechanical crush and syringe needle piecing; assay: CLI of mechanical injuries on the tail; type: in vivo, mice; conditions: 200 μL of 2.0×10^−4 M; 0, 20, 40 min
Experimental: as §2

inflammation = assay: CLI of inflammation caused by intramuscular injection of PBS; type: in vivo, nude mice; conditions: PBS intramuscularly two days prior; compared with 18FDG-PET/CT
Experimental: Furthermore, inflammation caused by intramuscular injection of PBS was also clearly imaged using probe 3 and in comparison with results using PET/CT (data not shown). Nude mice were intramuscularly injected with PBS two days prior to said imaging experiments. For the verification of the induced inflammation, 18-Fluorodeoxyglucose-Positron emission tomography/Computed tomography (18FDG-PET/CT) scan, from feet to head, was performed 12 h after the CLI experiment. The test mouse was anesthetized with isoflurane inhalation followed by intraperitoneal injection of 3.7 MBq of ^18FDG. An uptake time of 60 min was allowed before acquisition.

## Nc1cccc2c(=O)[nH][nH]c(=O)c12 [luminol, Luminol, reference compound]
[1]; H2O2 1.0×10^−2 M, PMT −800 V
  time for luminescence to decay to the baseline: about 600 s
Acute dermatitis
  CLI of acute dermatitis: failed to produce any detectable signals

## O=C(O)c1cc2c(=O)[nH][nH]c(=O)c2cc1-c1c2ccc(=O)cc-2oc2cc(O)ccc12 [compound 3]
[2]
  solubility: readily soluble
[3]
  CL response / sensitivity to ROS compared with luminol: more sensitive
[3]; listed as probe 3
  CL response / sensitivity to ROS compared with luminol: much stronger responses
[1]; H2O2 1.0×10^−2 M, PMT −800 V
  duration of luminescence: more than 18 days
[1]; PMT −800 V needed for detection
  sensitivity toward H2O2 compared with the other ROS: insensitivity
HRP [4]; HRP 5.0×10−5 mg/mL added
  luminescence from oxidation by H2O2: intense emission of a green light
HRP [4]; no HRP, probe 5.0×10^−3 M, H2O2 1.0×10^−4 M
  luminescence from oxidation by H2O2: no detectable luminescence
[5]
  metabolism during the imaging procedure: not quickly metabolized
  uptake, IP versus IV injection: comparable uptakes
[5]; nude
  probe cleared by uresis: about 90%
Acute toxicity in mice
  acute toxicity: does not appear that the probe or the resulting luminophore has significant acute toxicity
HRP [6]; 720 μg/kg
  HRP activity at which production of CL appeared saturated: about 25.0 U
HRP [6]; 7.2 mg/kg
  lowest total activity of HRP detected: ≤ 0.025 U
HRP [6]; mice
  dosage at which CL could be detected: about 2 μg/kg
HRP-Ab; 7.2 mg/kg IP, hind legs 0.015 and 0.030 U, after 60 minutes
  reduction in luminescence intensity: about 10%
HRP-Ab; hind legs, 0.015 and 0.030 U
  luminescence at HRP-Ab site: vivid
HRP-Ab; right foreleg, 0.0030 U HRP-Ab
  luminescence at HRP-Ab site: inadequate to produce any significant photon count or luminescence
[7]
  sensitivity for detection of ROS compared with luminol: much more sensitive
Acute dermatitis
  CLI of acute dermatitis: highly efficient
Gingival hemorrhage
  identification of sites of inflammation by luminescence: clearly identified
[8]
  identification of sites of inflammation by luminescence: clearly identified
inflammation
  imaging of inflammation: clearly showed inflammation
